Paper PMC10831071, “Reaction hijacking inhibition of Plasmodium falciparum asparagine tRNA synthetase” (Nature Communications, 2024)
“And” between values parts separate entries of the source, which are not always exact repeats. Equal values may be shown once. Read-outs that look alike come from different tables or passages of the source.

Experiments:
HsAsnRS = molecular target: T1, HsAsnRS (Homo sapiens, UniProt O43776); test: LC-MS of Asn-OSM-S-106 adduct generated by recombinant HsAsnRS; type: biochemical
T1 construct: HsAsnRS (residues M1–P548) and CDHsAsnRS (residues A98–P548); His6 (N, cleaved yes); made in house; host or cells: E. coli BL21 (DE3), pET11a
T1 sequence (O43776 1-548): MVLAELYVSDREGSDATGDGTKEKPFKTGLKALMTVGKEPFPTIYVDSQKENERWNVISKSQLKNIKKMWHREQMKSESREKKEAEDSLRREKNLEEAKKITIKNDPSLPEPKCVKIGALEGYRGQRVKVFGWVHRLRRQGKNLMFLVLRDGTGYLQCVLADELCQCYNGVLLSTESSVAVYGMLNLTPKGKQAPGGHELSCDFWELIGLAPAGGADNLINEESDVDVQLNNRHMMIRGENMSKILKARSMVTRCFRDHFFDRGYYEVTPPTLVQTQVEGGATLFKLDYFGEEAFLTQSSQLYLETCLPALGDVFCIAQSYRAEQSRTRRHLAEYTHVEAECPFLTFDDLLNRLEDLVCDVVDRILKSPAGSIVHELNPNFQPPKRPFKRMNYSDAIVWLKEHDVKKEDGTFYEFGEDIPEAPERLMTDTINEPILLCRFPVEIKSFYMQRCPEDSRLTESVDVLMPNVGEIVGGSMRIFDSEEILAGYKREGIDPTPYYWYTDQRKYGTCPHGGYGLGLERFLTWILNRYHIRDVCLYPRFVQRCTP
Experimental: The reaction buffer consists of 100 mM HEPES pH 7.5 (KOH), 160 mM KCl, 3.5 mM MgCl2, 1 mM DTT. The mixture was incubated at 37 °C for 1 h. After that, an equal volume of 8 M urea was added to the mixture. Finally, trifluoroacetic acid was added to a final concentration of 1%. The sample was centrifuged at 15,000 × g for 10 min and the supernatant was used for LCMS analysis. […] Quantification of the conjugates was done using Skyline (version 21.1.0.278).
Samples were analyzed by reversed-phase ultra-high-performance liquid chromatography (UHPLC) coupled to tandem mass spectrometry (MS/MS) employing a Vanquish UHPLC linked to an Orbitrap Fusion Lumos mass spectrometer (Thermo Fisher Scientific, San Jose, CA, USA) operated in positive ion mode. Solvent A was 0.1% formic acid/10 mM ammonium acetate in water and solvent B was 0.1% formic acid/10 mM ammonium acetate in acetonitrile. […] Finally, the percentage of solvent B was decreased to 0% in 0.1 min and maintained for 3.9 min.
MS experiments were performed using a Heated Electrospray Ionization (HESI) source. The spray voltage, flow rate of sheath, auxiliary and sweep gases were 3.5 kV, 20, 6, and 1 ‘arbitrary’ unit(s), respectively. The ion transfer tube and vaporizer temperatures were maintained at 350 °C and 400 °C, respectively, and the S-Lens RF level was set at 50%. […]

P. falciparum (3D7) = test: Activity against P. falciparum 3D7 cultures, 72 h (PfLDH growth inhibition / flow cytometry); type: cell-based, Plasmodium falciparum
Experimental: Antimalarial activity against P. falciparum 3D7 was tested by TCGLS, Kolkata, India, using the lactate dehydrogenase (PfLDH) growth inhibition assay. […] Plates were shaken to ensure mixing and were placed in the dark at 21 °C for 20 min. […] P. falciparum strain (3D7) was obtained from BEI Resources.
Viability was assessed in the second cycle by flow cytometry, following labeling with 2 μM Syto-61 (Thermo Fisher Scientific)[48],[49]. Viability represents the parasitemia normalized to untreated and “kill” controls that were treated with 2 μM dihydroartemisinin (DHA; Sigma-Aldrich) for 48–72 h. For drug pulse assays, tightly synchronized Cam3.II-rev[50] parasites (1–1.5% parasitemia, 0.2% final hematocrit) were added to the plates and incubated for 6 h. Drugs were removed and the parasitemia assessed in the trophozoite stage of the next cycle.

## Nc1ncnc2cc(-c3cccc(S(N)(=O)=O)c3)sc12 [OSM-S-106]
HsAsnRS; 1 μM HsAsnRS, 10 μM OSM-S-106, 1 h, 37 °C, individual experiments
  MS peak area (Asn-OSM-S-106 adduct): 3564405 and 3396334 and 2555457 and 1397007
HsAsnRS; 10 μM OSM-S-106, ATP, Asn, E. coli tRNA
  Asn-OSM-S-106 signal intensity with HsAsnRS, lower than with PfAsnRS: 18 fold
P. falciparum (3D7); Plasmodium falciparum, 3D7, 72 h, read-out: Pf3D7 IC50(72 h), 72 h, mean ± SD or duplicate values
  IC50: 58 ± 17 nM
P. falciparum (3D7); Plasmodium falciparum, 3D7, read-out: amount needed to kill parasite cultures
  IC50: ~60 nM
P. falciparum (3D7); read-out: Pf3D7 IC50 (72h), individual biological repeats (source data of Table 1)
  IC50: 61.1 nM and 52.7 nM and 87.1 nM and 79.6 nM and 50.5 nM and 48.8 nM and 37.9 nM and 43.7 nM
